The results in this text go back to ChEMBL document CHEMBL1201862, “PubChem BioAssay data set” (2004).

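Results reflect a 48-hour exposure of cells in 96-well plates to compound at five concentrations. The concentration for 50% growth inhibition is given as GI50.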 Active and inactive are the calls of the source. No stated cut-off is given here; in the data, active = GI50 up to about 1.1 µM and inactive = higher. Where only a bound is given, the exact number is not on record here.

Common to all, as to assay: growth of human tumour cells (NCI), 48 h
In assay [1] the test system is ACHN.
Assay [2] concerns BT-549.
In assay [3] the test system is CCRF-CEM.
Assay [4] has as its system COLO 205.
The subject of assay [5] is DU-145.
The subject of assay [6] is EKVX.
The subject of assay [7] is HCT-15.
In assay [8] the test system is HOP-92.
The subject of assay [9] is HT-29.
The subject of assay [10] is LOX IMVI.
In assay [11] the test system is Malme-3M.
The subject of assay [12] is NCI-H460.
Assay [13] concerns NCI-H522.
Assay [14] deals with RXF 631.
The test system of assay [15] is SF-295.
Assay [16] has as its system SF-539.
The subject of assay [17] is SN12C.
Assay [18] has as its system SW-620.
Assay [19] has as its system TK-10.
Assay [20] deals with U-251.

On to `COc1cccc2c1C(=O)c1c(O)c3c(c(O)c1C2=O)C[C@@](O)(/C(C)=N\O)C[C@@H]3OC1CC(N)C(O)C(C)O1` (some centres not stated), for which the GI50 in assay [1] is 1.9 µM (inactive); in assay [2], 1.72 µM (inactive); in assay [3] it was 0.187 µM (active); in [4], 0.955 µM (active); in assay [5] it was 1.72 µM (inactive); in [6], 3.19 µM (inactive). The GI50 was 28.7 µM in assay [7]; 1.08 µM (active) in [8]; 1.34 µM (inactive) in assay [9]; 0.388 µM (active) in [10]; 0.755 µM (active) in assay [11]; 0.268 µM (active) in assay [12]. Also, the GI50 is 0.315 µM (active) in [13]; 2.24 µM (inactive) in assay [14]; 1.38 µM (inactive) in assay [15]; 0.931 µM (active) in assay [16]; 0.741 µM (active) in assay [17]; 0.504 µM (active) in [18]. For the same molecule, the GI50 was 3.24 µM (inactive) in assay [19] and 0.766 µM (active) in assay [20].
Regarding `O=C(NCCCCCCCCCCCCNC(=O)c1cccc2ccccc12)c1cccc2ccccc12`, the GI50 is > 64 µM (inactive) in assay [1]; > 56.2 µM (inactive) in assay [3]; > 100 µM (inactive) in assay [4]; > 62.8 µM (inactive) in assay [6]; above 100 µM in assay [7]; > 52.2 µM (inactive) in [8]. Besides, the GI50 in assay [9] is > 100 µM (inactive); in assay [10], > 84.9 µM (inactive); in assay [11], > 92.3 µM (inactive); in assay [12] it was > 90.8 µM (inactive); in [13], > 100 µM (inactive); in assay [14], 31.2 µM (inactive). Further, the GI50 in assay [15] was > 50.4 µM (inactive); in assay [16] it was 1.66 µM (inactive); in assay [17], > 68.4 µM (inactive); in assay [18], > 67.5 µM (inactive); in assay [19] it was > 52.7 µM (inactive); in assay [20], > 36.7 µM (inactive).
Consider `COc1cccc2c1C(=O)c1c(O)c3c(c(O)c1C2=O)C[C@@](O)(C(=O)CO)CC3OC1CC(O)C(O)C(C)O1` (some centres not stated), for which the GI50 in [1] is 0.0527 µM (active); in assay [2], 0.279 µM (active); in assay [3], 0.0217 µM (active); in [5], 0.0294 µM (active); in assay [6], 1.72 µM (inactive); in assay [7], 0.397 µM. The GI50 is 0.138 µM (active) in assay [8]; 0.354 µM (active) in [9]; 0.108 µM (active) in [10]; 0.141 µM (active) in assay [11]; < 0.01 µM (active) in assay [12]; 0.211 µM (active) in assay [13]. Also, the GI50 in [14] is 0.188 µM (active); in assay [15], 0.104 µM (active); in assay [16], < 0.0358 µM (active); in assay [17], 0.115 µM (active); in assay [18], 0.145 µM (active); in assay [19] it was 0.792 µM (active). Also, the GI50 in assay [20] is 0.0679 µM (active).
